Data taken from US7626021B2, “Fused ring heterocycle kinase modulators” (SGX Pharmaceuticals, Inc., priority 2004, dated 2009).
Like-named read-outs stand apart in the source and are kept apart here.

Assays:
PDK1 kinase = target: T1, PDK1 kinase (Homo sapiens, UniProt O15530); test: PDK1 luminescence-based enzyme assay (Kinase-Glo); type: biochemical
T1 construct: 6x Histidine tag (TEV-cleavable) (cleaved yes); made in house; host or cells: Sf9 insect cells
T1 sequence (O15530 1-556): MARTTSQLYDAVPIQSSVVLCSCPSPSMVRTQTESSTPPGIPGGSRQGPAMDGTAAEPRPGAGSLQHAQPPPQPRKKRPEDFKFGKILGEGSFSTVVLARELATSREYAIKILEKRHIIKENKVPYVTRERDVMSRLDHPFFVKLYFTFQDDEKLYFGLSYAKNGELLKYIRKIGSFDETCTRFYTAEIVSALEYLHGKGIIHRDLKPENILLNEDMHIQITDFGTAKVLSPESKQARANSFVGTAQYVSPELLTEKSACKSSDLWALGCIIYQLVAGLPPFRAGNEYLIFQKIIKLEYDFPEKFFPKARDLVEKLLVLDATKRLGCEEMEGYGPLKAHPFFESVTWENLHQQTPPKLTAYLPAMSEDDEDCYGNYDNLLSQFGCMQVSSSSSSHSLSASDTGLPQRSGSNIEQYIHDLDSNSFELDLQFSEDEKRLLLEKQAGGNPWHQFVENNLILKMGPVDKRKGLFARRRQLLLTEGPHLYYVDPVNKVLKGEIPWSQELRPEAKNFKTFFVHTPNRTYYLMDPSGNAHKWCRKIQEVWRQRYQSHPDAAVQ
From the text: (§1) In addition to the c-Abl PK/LDH coupled assay (above), homogeneous luminescence-based inhibitor screening assays were developed for c-Abl, MET, AurA, and PDK1 kinases (among others). Each of these assays made use of an ATP depletion assay (Kinase-Glo™, Promega Corporation, Madison, Wis.) to quantitate kinase activity. The Kinase-Glo™ format uses a thermostable luciferase to generate luminescent signal from ATP remaining in solution following the kinase reaction. The luminescent signal is inversely correlated with the amount of kinase activity.
PDK1 Luminescence-Based Enzyme Assay
Standard Assay Setup for 384-well format (20 μl kinase reaction, 40 μl detection reaction): 10 mM MgCl2; 0.01 mM PDKtide; 1 μl test compound (in DMSO); 0.1 μg/ml PDK1 kinase; 5 μM ATP; 1 mM MgCl2; 100 mM HEPES+0.01% Brij buffer. Positive controls contained DMSO with no test compound. Negative controls contained 10 μM staurosporine. The kinase reactions were initiated at time t=0 by the addition of ATP. Kinase reactions were incubated at 21° C. for 40 min, then 20 μl of Kinase-Glo™ reagent were added to each well to quench the kinase reaction and initiate the luminescence reaction. After a 20 min incubation at 21° C., the luminescence was detected in a plate-reading luminometer.

MET kinase = target: T2, MET kinase (Homo sapiens, UniProt P08581); test: MET luminescence-based enzyme assay (Kinase-Glo); type: biochemical
T2 construct: Sf9 insect cell culture expressing the kinase domain of human Met; 6x Histidine tag (TEV-cleavable) (cleaved yes); made in house; host or cells: Sf9 insect cells
T2 sequence (P08581 1078-1345 limits assumed): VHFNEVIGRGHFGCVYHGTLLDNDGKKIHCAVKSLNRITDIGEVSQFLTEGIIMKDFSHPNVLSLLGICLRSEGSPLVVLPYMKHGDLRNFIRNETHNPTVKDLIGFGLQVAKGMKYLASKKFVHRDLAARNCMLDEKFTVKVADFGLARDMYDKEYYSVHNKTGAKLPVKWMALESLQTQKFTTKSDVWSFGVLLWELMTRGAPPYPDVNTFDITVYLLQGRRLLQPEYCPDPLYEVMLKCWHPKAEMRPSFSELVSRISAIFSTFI
From the text: as §1
MET Luminescence-based Enzyme Assay
Materials: Poly Glu-Tyr (4:1) substrate (Sigma Cat# P-0275), ATP (Sigma Cat#A-3377, FW=551), HEPES buffer, pH 7.5, Bovine serum albumin (BSA) (Roche 92423420), MgCl2, Staurosporine (Streptomyces sp. Sigma Cat#85660-1MG), white Costar 384-well flat-bottom plate (VWR Cat#29444-088). […]
Standard Assay Setup for 384-well format (20 μl kinase reaction, 40 μl detection reaction): 10 mM MgCl2; 0.3 mg/ml poly Glu-Tyr; 0.1% BSA; 1 μl test compound (in DMSO); 0.4 μg/ml MET kinase; 10 μM ATP; 100 mM HEPES buffer. […] Kinase reactions were incubated at 21° C. for 60 min, then 20 μl of Kinase-Glo™ reagent were added to each well to quench the kinase reaction and initiate the luminescence reaction. After a 20 min incubation at 21° C., the luminescence was detected in a plate-reading luminometer.

Row | SMILES | IC50 (PDK1 kinase) [µM] | also measured
1 | COc1ccccc1-c1n[nH]c2ncc(-c3ccc(C(=O)N4CCCC4)cc3)cc12 | 1 to 10 | –
2 | CCN1CCN(C(=O)c2cccc(-c3cnc4[nH]nc(-c5cc(F)ccc5OC)c4c3)c2)CC1 | – | IC50 (MET kinase): 1 to 10 µM
3 | COc1cc(-c2cnc3[nH]cc(-c4ccc(C)cc4)c3n2)ccc1O | – | IC50 (PDK1 kinase; read-out: PDK1 IC50): 1 to 10 µM
4 | COc1ccccc1-c1n[nH]c2ncc(-c3ccc(C(=O)N4CCN(C)CC4)cc3)cc12 | 1 to 10 | –
5 | COc1cc(-c2cnc3[nH]nc(-c4ccccc4)c3c2)ccc1O | 1 to 10 | –
6 | COc1ccccc1-c1n[nH]c2ncc(-c3ccc(C(=O)N4CCCCC4)cc3)cc12 | 1 to 10 | –
7 | COc1ccccc1-c1n[nH]c2ncc(-c3ccc(C(=O)N4CCOCC4)cc3)cc12 | 1 to 10 | –
